Measured values as given in PubChem BioAssay (NCI).
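Test compounds were applied to cells in 96-well plates for 48 hours at 5 doses. At the TGI there is no net growth.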

What was measured:
Assay in all cases: DTP human tumour cell line panel, 48 h
[1] = system: HOP-62 NSCLC
[2] = system: HS 578T breast
[3] = system: LOX IMVI melanoma
[4] = system: M14 melanoma
[5] = system: MDA-N
[6] = system: OVCAR-5 ovarian
[7] = system: RPMI-8226 leukemia
[8] = system: SK-MEL-5 melanoma
[9] = system: U251 CNS
[10] = system: UACC-257 melanoma
[11] = system: MOLT-4 leukemia
[12] = system: SR leukemia

| SMILES | TGI [1] [µM] | TGI [2] [µM] | TGI [3] [µM] | TGI [4] [µM] | TGI [5] [µM] | TGI [6] [µM] | TGI [7] [µM] | TGI [8] [µM] | TGI [9] [µM] | TGI [10] [µM] | TGI [11] [µM] | TGI [12] [µM] |
| --- | --- | --- | --- | --- | --- | --- | --- | --- | --- | --- | --- | --- |
| O=C(Cc1nc2ccc(C(=O)c3ccccc3)cc2[nH]c1=O)C(=O)Nc1ccc(Br)cc1 | > 100 | > 100 | > 100 | > 100 | > 100 | > 100 | > 100 | > 100 | > 100 | > 100 | – | – |
| N#CCCN(c1ccc(C=Nc2cccc([N+](=O)[O-])c2)cc1)S(=O)(=O)c1ccccc1 | > 100 | – | – | > 100 | – | – | > 100 | – | – | > 100 | > 100 | > 100 |
| CCOC(=O)C(OCC1CC=CCC1)Sc1ccccc1 (configuration not stated) | > 100 | – | > 100 | > 100 | – | > 100 | > 100 | > 100 | > 100 | > 100 | – | > 100 |
| CC(C)(C)OC(=O)NC(C)(C)C(=O)NCCC(=O)O | > 100 | > 100 | > 100 | > 100 | – | > 100 | > 100 | > 100 | > 100 | > 100 | > 100 | – |
| Cc1ccccc1C1OC1C(=O)c1ccccc1N (configuration not stated) | – | – | > 100 | > 100 | 36.3 | > 100 | > 100 | > 100 | > 100 | > 100 | > 100 | > 100 |
| O=C1O[C@@H](c2ccccc2)C[C@@H]1CN1CCOCC1 | > 100 | – | > 100 | > 100 | – | > 100 | > 100 | > 100 | > 100 | > 100 | > 100 | – |
| C=CCN(CC=C)Cn1c(=S)sc2ccccc21 | > 100 | > 100 | 47.1 | > 100 | > 100 | > 100 | – | > 100 | > 100 | > 100 | > 100 | – |
| Cc1c(/C=N\NC(=S)N2CCN(C(=S)N/N=C\c3c(C)n(C)n(-c4ccccc4)c3=O)CC2)c(=O)n(-c2ccccc2)n1C | > 100 | > 100 | – | > 100 | – | > 100 | – | > 100 | > 100 | 97.3 | > 100 | > 100 |
| O=C1CC(O)c2c1csc2Br (configuration not stated) | > 100 | 72.4 | 36.1 | 35.5 | 83.4 | > 100 | 74.5 | > 100 | 41 | 31.4 | 55.3 | – |
| CC(C)C(Sc1nc(-c2ccccc2)c(-c2ccccc2)[nH]1)C(=O)NNC(=S)Nc1ccccc1 (configuration not stated) | 39.8 | – | 29.3 | 30.6 | – | 32.6 | 39.6 | 25.4 | 30 | 33.5 | 33 | 64.2 |
| O=c1oc2ccccc2c(O)c1C(c1cc(OCc2ccccc2)cc(OCc2ccccc2)c1)c1c(O)c2ccccc2oc1=O | 37 | 89.3 | 77.5 | 23 | – | 34.5 | 6.08 | 21.2 | > 47.3 | 38.2 | 19.8 | 15 |
| COC1O[C@H]2CCN(C(=O)OCc3ccccc3)[C@H]2[C@H]1OCc1ccccc1 (some centres not stated) | > 100 | – | > 100 | > 100 | – | > 100 | > 100 | 64.6 | > 100 | > 100 | > 100 | 99.7 |
| c1ccc(C[P+]2(c3ccccc3)c3ccccc3-c3ccccc32)cc1 | > 100 | > 100 | > 100 | > 100 | > 100 | – | > 100 | > 100 | – | > 100 | > 100 | – |
| Cc1cc(=O)cc2sc3c(C)cccc3nc1-2 | > 100 | – | 39.2 | 52 | – | > 100 | 97 | 31.8 | > 100 | > 100 | 93.3 | > 100 |
| CCCN=C1CC(C)Nc2ccccc2N1 (configuration not stated) | > 100 | > 100 | – | > 100 | > 100 | > 100 | > 100 | > 100 | > 100 | > 100 | > 100 | – |
| Cc1ccc2c(c1C)CC1(Cc3c(ccc4c3CCC4)C1=O)C2=O (configuration not stated) | – | > 100 | – | > 100 | > 100 | > 100 | > 100 | > 100 | > 100 | > 100 | > 100 | – |

| SMILES | TGI [1] [µM] | TGI [2] [µM] | TGI [3] [µM] | TGI [4] [µM] | TGI [5] [µM] | TGI [6] [µM] | TGI [7] [µM] | TGI [8] [µM] | TGI [9] [µM] | TGI [10] [µM] | TGI [11] [µM] | TGI [12] [µM] |
| --- | --- | --- | --- | --- | --- | --- | --- | --- | --- | --- | --- | --- |
| Cc1c(Cl)cccc1NC(=O)C(=O)C1C(=O)CC(C)(C)CC1=O | > 100 | – | > 100 | > 100 | – | > 100 | > 100 | > 100 | > 100 | > 100 | > 100 | > 100 |
| CCN(CC)CCOC(c1cc(OC)ccc1OC)c1ccc2n1-c1ccccc1OC2 (configuration not stated) | 40.2 | 30.9 | 23.6 | 33.2 | 26.5 | 37.4 | 16 | 22.2 | 28.1 | 30.6 | – | – |
| c1ccc([P+](CCNCCNCC[P+](c2ccccc2)(c2ccccc2)c2ccccc2)(c2ccccc2)c2ccccc2)cc1 | > 100 | > 100 | – | > 100 | > 100 | > 100 | > 100 | > 100 | > 100 | > 100 | > 100 | – |
| CCOC(=O)c1cc2c([N+](=O)[O-])c(NC(C)=O)ccc2s1 | > 100 | > 100 | > 100 | > 100 | > 100 | > 100 | > 100 | > 100 | > 100 | > 100 | > 100 | – |
| CCOP(=O)(OCC)[C@H](O)c1ccsc1 | > 100 | – | > 100 | > 100 | > 100 | > 100 | > 100 | > 100 | > 100 | > 100 | > 100 | > 100 |
| COc1ccc(/C(=C/n2ccnc2)C(=O)c2ccc(OC)c(OC)c2)cc1 | > 100 | – | > 100 | > 100 | – | > 100 | > 100 | > 100 | > 100 | > 100 | > 100 | > 100 |
| CCSc1nnc(CSc2nc(-c3ccccc3)c(-c3ccccc3)[nH]2)n1-c1ccccc1 | 35.2 | – | 43.8 | 34.9 | – | 30.4 | 46.1 | 30.9 | 31.7 | 33.6 | 40 | 48.5 |
| C[N+](C)(C)CC(=O)N/N=c1\cc(C(=O)Nc2ccc(N=O)cc2C#N)oc2cc(O)ccc12 | > 100 | – | > 100 | > 100 | – | > 100 | – | > 100 | > 100 | > 100 | > 100 | > 100 |
| CO[C@@H](C(=O)OC1C=CC2(CC1)C(=O)N(C)c1ccccc12)c1ccccc1 (some centres not stated) | > 100 | – | > 100 | > 100 | > 100 | > 100 | > 100 | > 100 | > 100 | > 100 | > 100 | > 100 |
| CCOC(=O)C1=C(C)N(c2ccccc2)C2=C(C(=O)N(c3ccccc3)C2c2ccccc2)C1c1ccccc1 (configuration not stated) | > 100 | – | > 100 | > 100 | – | > 100 | > 100 | > 100 | > 100 | > 100 | > 100 | > 100 |
| COc1ccc(C2C(Cl)C(=O)N2NC(=O)c2ccc(NC(C)=O)cc2)cc1 (configuration not stated) | > 100 | – | > 100 | > 100 | – | > 100 | – | > 100 | > 100 | > 100 | > 100 | – |
| COC1(C)CC2N(C(=O)c3ccccc3)N=C(c3ccccc3)CC2(C)O1 (configuration not stated) | > 100 | – | > 100 | > 100 | – | > 100 | > 100 | > 100 | – | > 100 | > 100 | – |
| O=C1CC2(C[C@@H]3CCCCCCCCC[C@@H](C3)C2)N1 (some centres not stated) | 32.8 | – | – | 28.8 | – | 29.6 | 51.1 | 30.6 | 30.3 | 25.1 | 37.4 | 30.7 |
| COC(=O)c1cc(CC(C)C)c2c(c1)[nH]c1ccccc12 | – | – | > 100 | > 100 | – | > 100 | – | > 100 | > 100 | – | > 100 | – |
| Cc1sc2nc3n(c(=O)c2c1C)N=CN(c1ccccc1)C3 | 65.3 | – | > 100 | > 100 | > 100 | > 100 | > 100 | > 100 | > 100 | > 100 | > 100 | > 100 |
| CCOC(=O)c1c(NC(=O)c2ccccc2)sc2c1CCCC2 | – | > 100 | > 100 | > 100 | > 100 | > 100 | > 100 | > 100 | > 100 | > 100 | > 100 | – |
